Reference: patent US9044482B2, “Use of aminoindane compounds in treating overactive bladder and interstitial cystitis” (priority 2012, dated 2015)

How the values were obtained:
[1] = tested on: micturition pattern; conditions: animal model of IC and OAB; cited from earlier work
[2] = tested on: isolated detrusor bladder muscle; assay: In vitro assay on isolated bladder detrusor muscle strips, EFS-induced contractions in organ bath; set-up: species or system guinea pig; conditions: for IC50, inhibition of EFS-induced detrusor contractions: cumulative concentration-response, isolated guinea pig detrusor strips; for steady-state inhibition of EFS-induced contractile response: drug 0.01% in organ bath
Procedure: Whole bladders were removed from euthanized female guinea pigs, longitudinal detrusor muscle strips were dissected from each bladder and were mounted in a conventional glass organ bath and perfused continuously with an oxygenated Krebs solution. Detrusor contractions were elicited in response to electrical field stimulation (EFS) and were recorded using isometric force transducers linked to a data acquisition software system. After an equilibration period, tissue strips were subjected to regular EFS for a period of 30 minutes or until stable baseline contractions were attained.

[3] = tested on: noxious urinary bladder distention; conditions: in vivo; cited from earlier work
[4] = tested on: bladder function; assay: In vivo assay of bladder function (cystometry) in conscious rats; set-up: species or system rat
Procedure: This study was performed in order to assess the effects of compounds on various aspects of bladder function in conscious rats. See, Clouse, 2012, Urology 79(6):1410e1-1410e6. Rats were prepared with indwelling polyethylene catheters positioned into the bladder through the dome and exteriorized at the scapular level. […] pressure was monitored by connecting the catheter to a commercial strain gauge via a T-connector that permitted the infusion of solutions and drugs. Cystometric recording commenced 48 hours after catheter implantation. Animals were continuously administered saline, with or without test compounds, through the catheter, at a rate of 2 mL/hr. Urine was collected and weighed using a force transducer and intravesical pressure was continually monitored in order to assess micturition amplitude, frequency and volume and bladder capacity. Saline perfusions were supplemented with test compounds in order to determine the effects on each of the above bladder function parameters.

[5] = infusion of 0.3% solution into bladder, conscious rats

For `CCN(CC)CC(=O)Nc1c(C)cccc1C` [lidocaine, reference compound], the “micturition pattern as determined by cystometry” value [1] is listed as “normalizes the micturition pattern”, the “recovery of EFS-induced contractile response after washout” value ([2]; 0.01%, by 2 hours after washing out) is listed as “around 80 % of predrug levels” and the “IC50, inhibition of EFS-induced detrusor contractions” value [2] is listed as ~0.001%. The “steady-state inhibition of EFS-induced contractile response” value [2] was ~40%.

In the case of `Cc1cccc(C)c1OCC(C)N` (stereo not shown) [mexilitine], the “painful sensation of noxious urinary bladder distention” value [3] is listed as “prevents the painful sensation”.

In the case of `Cc1ccccc1N(CC[C@H]1CCCC[N+]1(C)C)C1Cc2ccccc2C1.[I-]` [(R)-1,1-dimethyl-2-[2-((indan-2-yl)(2-methylphenyl)amino)ethyl]piperidinium iodide], the “duration of action on micturition frequency” value ([4]; compared to lidocaine) is reported as “longer duration of action”.

With `Cc1ccccc1N(CC[C@H]1CCCC[N+]1(C)C)C1Cc2ccccc2C1.[Br-]` [example 43, (R)-1,1-dimethyl-2-[2-((indan-2-yl)(2-methylphenyl)amino)ethyl]piperidinium iodide] the “period of effect on bladder capacity and micturition volume after administration” value ([4]; infusion of 0.3% solution) was 2 h, the bladder capacity [4, 5] was “increase in bladder capacity” and the micturition volume [4, 5] was “decrease in micturition volume”. For the same compound, the “time for which steady state inhibition was maintained after drug had been eliminated from the organ bath” value ([2]; 0.01%) was “at least 2 hours”, the “IC50, inhibition of EFS-induced detrusor contractions” value [2] was ~0.0001% and the “steady-state inhibition of EFS-induced contractile response” value [2] was 30-45%. The “potency relative to lidocaine alone” value ([2]; from IC50 for inhibition of EFS-induced detrusor contractions) was “about 10 fold”.
